In ChEMBL document CHEMBL6178021, “Optimization of Tambjamines Active against Multiple Stages of Malaria Parasites” (J Med Chem, 2025):
≈ marks a conversion by molar mass, not a printed value.

Assays:
Plasmodium falciparum [1] = experiment: microbe, parasite or virus in culture; conditions: D6, 72 h
Description: Antiplasmodial activity against asexual blood-stage Plasmodium falciparum D6 using 2% haematocrit and 0.2% parasitemia assessed as reduction in fluorescence measured after 72 hrs by Malaria SYBR Green I-based Fluorescence (MSF) assay

Plasmodium yoelii [2] = experiment: Antimalarial activity against erythrocytic Plasmodium yoelii MRA-428 infected in CF1 mouse assessed as reduction in parasitemia at 50 mg/kg, po once daily for 4 days measured on day 5; assay type: functional; design: scale not given: the % may be the effect or the level left; conditions: time 4 day
[3] = Metabolic stability in human liver microsomes assessed as half life measured up to 60 mins by LC/MS analysis; assay type: ADME, Microsome
MDR1 (human) [4] = experiment: Apparent permeability across apical to basolateral side in MDCK transfected with human MDR1 cells incubated for 1 hr by LC-MS analysis; conditions: dog, MDCK-MDR1
[5] = Metabolic stability in mouse liver microsomes assessed as half life measured up to 60 mins by LC/MS analysis; assay type: ADME, Microsome
[6] = Solubility of the compound in potassium phosphate buffer at pH 7.4 by UV-vis spectroscopy; conditions: buffer
HepG2 = experiment: Cytotoxicity against human HepG2 cells assessed as cell viability measured after 48 hrs by MTT assay; assay type: toxicity, cell-based; conditions: hepg2
in vitro [7] = conditions: mouse, liver microsomes
MDR1 (human) [8] = experiment: Apparent permeability across basolateral to apical side in MDCK transfected with human MDR1 cells incubated for 1 hr by LC-MS analysis; conditions: dog, MDCK-MDR1
Plasmodium falciparum [9] = experiment: Antiplasmodial activity against asexual blood-stage Plasmodium falciparum Tm90-C2B using 2% haematocrit and 0.2% parasitemia assessed as reduction in fluorescence measured after 72 hrs by Malaria SYBR Green I-based Fluorescence (MSF) assay; assay type: functional, organism-based
in vitro [10] = conditions: human, liver microsomes
Plasmodium falciparum [11] = experiment: microbe, parasite or virus in culture; conditions: Dd2, 72 h
Description: Antiplasmodial activity against asexual blood-stage Plasmodium falciparum Dd2 using 2% haematocrit and 0.2% parasitemia assessed as reduction in fluorescence measured after 72 hrs by Malaria SYBR Green I-based Fluorescence (MSF) assay

Plasmodium yoelii [12] = experiment: Antimalarial activity against erythrocytic Plasmodium yoelii MRA-428 infected in CF1 mouse assessed as reduction in parasitemia at 10 mg/kg, po once daily for 4 days measured on day 5; assay type: functional; design: scale not given: the % may be the effect or the level left; conditions: time 4 day
Plasmodium yoelii [13] = experiment: Antimalarial activity against erythrocytic Plasmodium yoelii MRA-428 infected in CF1 mouse assessed as cured mouse at 25 mg/kg, po once daily for 4 days measured on day 28 day; assay type: functional, organism-based; conditions: time 4.0 day
Plasmodium yoelii [14] = experiment: Antimalarial activity against erythrocytic Plasmodium yoelii MRA-428 infected in CF1 mouse assessed as reduction in parasitemia at 25 mg/kg, po once daily for 4 days measured on day 5; assay type: functional; design: scale not given: the % may be the effect or the level left; conditions: time 4 day
Plasmodium yoelii [15] = experiment: Antimalarial activity against erythrocytic Plasmodium yoelii MRA-428 infected in CF1 mouse assessed as cured mouse at 50 mg/kg, po once daily for 4 days measured on day 28 day; assay type: functional, organism-based; conditions: time 4.0 day
MDR1 (human) [16] = experiment: Efflux ratio, ratio of apparent permeability across apical to basolateral side over basolateral to apical side in MDCK transfected with human MDR1 cells incubated for 1 hr by LC-MS analysis; conditions: dog

SMILES	IC50 (Plasmodium falciparum [1]) [nM]	Activity (Plasmodium yoelii [2]) [%]	half-life [3] [min]	Papp A→B at 1 h (MDR1 (human) [4]) [×10⁻⁶ cm/s]	half-life [5] [min]	solubility [6] [µM]	IC50 (HepG2) [nM]	microsomal CLint at 1 h (in vitro [7]) [µL/min/mg]	Papp B→A at 1 h (MDR1 (human) [8]) [×10⁻⁶ cm/s]	IC50 (Plasmodium falciparum [9]) [nM]	microsomal CLint at 1 h (in vitro [10]) [µL/min/mg]	IC50 (Plasmodium falciparum [11]) [nM]	Activity (Plasmodium yoelii [12]) [%]	Activity (Plasmodium yoelii [13])	Activity (Plasmodium yoelii [14]) [%]	Activity (Plasmodium yoelii [15])	efflux ratio at 1 h (MDR1 (human) [16])
CCC1=C(C)/C(=C/NC2CCCCC2)N=C1c1ccc(C)[nH]1	27.4	100	> 60	0.33	31.7	72.5 (≈ 21.6 µg/mL)	8090	43.7	0.099	32.3	6.07	15.7	80.3	Not active; None Of The Mouse Cured Out Of Four Tested	100	Not active; None Of The Mouse Cured Out Of Four Tested	
CCN(CC)CCCC(C)Nc1ccnc2cc(Cl)ccc12 (stereo unspecified)														Not active; None Of The Mouse Cured Out Of Four Tested		Not active; None Of The Mouse Cured Out Of Four Tested	
CCC1=C(CC)/C(=C/NC2CCCCCC2)N=C1c1ccc(Cl)[nH]1	460		> 60	0.19	> 60	14.4 (≈ 4.98 µg/mL)		8.33	0.076	180	22.2	254					0.4
C(/NC1CCCCC1)=C1/N=C(c2ccc[nH]2)C2=C1CCCC2		100		0.27	23.8	294 (≈ 86.9 µg/mL)		58.2	0.092	16.6	51.9	13.2	88.8	Not active; None Of The Mouse Cured Out Of Four Tested	100	Not active; None Of The Mouse Cured Out Of Four Tested	
CC1=C(C)/C(=C/NC2CCCCC2)N=C1c1ccc(C)[nH]1	9.92	100	> 60	0.053	37.2	168 (≈ 47.6 µg/mL)	6820	37.3	0.37	4.9	13.6	4.17	0	Not active; None Of The Mouse Cured Out Of Four Tested	100	Not active; None Of The Mouse Cured Out Of Four Tested	
CCC1=C(CC)/C(=C/NC2CCCCCC2)N=C1c1ccc(Br)[nH]1	281		> 60	0.004	58.5	< 3.125		23.7	0.001	130	13	224					0.26
CCC1=C(CC)/C(=C/NC2CCCCC2)N=C1c1cc2cc(Cl)ccc2[nH]1	536		24.5	0.002	> 60	30.7 (≈ 11.7 µg/mL)		19.7	0.001	471	56.5	467					0.59
CCC1=C(CC)/C(=C/NC2CCCCCC2)N=C1c1ccc(CC)[nH]1	7.2	100	> 60	0.03	> 60	30.1 (≈ 10.2 µg/mL)	3640	5.29	0.012	4.57	13.3	3.21	37.6	Not active; None Of The Mouse Cured Out Of Four Tested	100	Not active; None Of The Mouse Cured Out Of Four Tested	
CCC1=C(C)/C(=C/NC2CCCCCCC2)N=C1c1ccc(CC)[nH]1	7.39	100	41.4	0.095	> 60	10 (≈ 3.4 µg/mL)	4280	17.5		2.98	33.4	9.01	61.9	Not active; None Of The Mouse Cured Out Of Four Tested	100	Not active; None Of The Mouse Cured Out Of Four Tested	
CCC1=C(CC)/C(=C/NC2CCCCCCC2)N=C1c1ccc(Br)[nH]1	53.4		> 60	0.006	> 60	6.28 (≈ 2.54 µg/mL)	9480	10.4	0.066	75.2	9.19	124	20.4		42.3		
CCC1=C(CC)/C(=C/NC2CCCCC2)N=C1c1ccc[nH]1	72.1	100	30.5	0.22	40.1	307 (≈ 91.3 µg/mL)	13000	34.5	0.18	79.9	45.5	115	94.4	Not active; None Of The Mouse Cured Out Of Four Tested	100	Not active; None Of The Mouse Cured Out Of Four Tested	
CCc1ccc(C2=N/C(=C\NC3CCCCCCC3)C(C)=C2C)[nH]1	5.05	100	> 60	0.022	> 60	57.7 (≈ 18.8 µg/mL)	2020			4.28		3.97			97		
CC1=C(C)/C(=C/NC2CCCCCC2)N=C1c1ccc(C)[nH]1	12.4	100	55	0.006	36.8	72.3 (≈ 21.5 µg/mL)	6770	37.6	0.12	4.84	25.2	3.73	0	Not active; None Of The Mouse Cured Out Of Four Tested	100	Not active; None Of The Mouse Cured Out Of Four Tested	
